Columns and labels:
LOX IMVI = experiment: NCI-60 SRB growth inhibition, one-dose and five-dose; type: cell-based; conditions: Homo sapiens
[1] = test system: NCI 60-cell line panel (full panel); experiment: NCI-60 SRB growth inhibition, full panel mean / MG-MID; type: cell-based, human
BT-549 = experiment: NCI-60 SRB growth inhibition, one-dose and five-dose; type: cell-based; conditions: Homo sapiens
NCI-H322M = experiment: as above; type: cell-based; conditions: Homo sapiens
COLO 205 = experiment: as above; type: cell-based; conditions: Homo sapiens
T-47D = experiment: as above; type: cell-based; conditions: Homo sapiens, T47D
HCC-2998 = experiment: as above; type: cell-based; conditions: Homo sapiens
K-562 = experiment: as above; type: cell-based; conditions: Homo sapiens
PC-3 = experiment: as above; type: cell-based; conditions: Homo sapiens
OVCAR-4 = experiment: as above; type: cell-based; conditions: Homo sapiens
SF-268 = experiment: as above; type: cell-based; conditions: Homo sapiens
MCF7 = experiment: as above; type: cell-based; conditions: Homo sapiens
EKVX = experiment: as above; type: cell-based; conditions: Homo sapiens
OVCAR-5 = experiment: as above; type: cell-based; conditions: Homo sapiens
HOP-92 = experiment: as above; type: cell-based; conditions: Homo sapiens
HT29 = experiment: as above; type: cell-based; conditions: Homo sapiens
SK-OV-3 = experiment: as above; type: cell-based; conditions: Homo sapiens
HCT-15 = experiment: as above; type: cell-based; conditions: Homo sapiens
NCI-H226 = experiment: as above; type: cell-based; conditions: Homo sapiens
IGROV1 = experiment: as above; type: cell-based; conditions: Homo sapiens
NCI/ADR-RES = experiment: as above; type: cell-based; conditions: Homo sapiens
M14 = experiment: as above; type: cell-based; conditions: Homo sapiens
786-0 = experiment: as above; type: cell-based; conditions: Homo sapiens
HCT-116 = experiment: as above; type: cell-based; conditions: Homo sapiens
NCI-H522 = experiment: as above; type: cell-based; conditions: Homo sapiens
OVCAR-3 = experiment: as above; type: cell-based; conditions: Homo sapiens
TK-10 = experiment: as above; type: cell-based; conditions: Homo sapiens
SK-MEL-28 = experiment: as above; type: cell-based; conditions: Homo sapiens
CCRF-CEM = experiment: as above; type: cell-based; conditions: Homo sapiens
MALME-3M = experiment: as above; type: cell-based; conditions: Homo sapiens
SK-MEL-5 = experiment: as above; type: cell-based; conditions: Homo sapiens
NCI-H460 = experiment: as above; type: cell-based; conditions: Homo sapiens
HOP-62 = experiment: as above; type: cell-based; conditions: Homo sapiens
NCI-H23 = experiment: as above; type: cell-based; conditions: Homo sapiens
A498 = experiment: as above; type: cell-based; conditions: Homo sapiens
U251 = experiment: as above; type: cell-based; conditions: Homo sapiens
SNB-75 = experiment: as above; type: cell-based; conditions: Homo sapiens
ACHN = experiment: as above; type: cell-based; conditions: Homo sapiens
UACC-62 = experiment: as above; type: cell-based; conditions: Homo sapiens
HS 578 T = experiment: as above; type: cell-based; conditions: Homo sapiens
SK-MEL-2 = experiment: as above; type: cell-based; conditions: Homo sapiens
KM12 = experiment: as above; type: cell-based; conditions: Homo sapiens
[2] = read-out: percent growth inhibition

COc1ccc(CNc2cccc(C(=O)/C=C/c3cccnc3)c2)cc1OC [Compound 5c, (E)-1–(3-((3,4-dimethoxybenzyl)amino)phenyl)-3-(pyridin-3-yl)prop-2-en-1-one]
GI50 (LOX IMVI): 1.76 µM | inhibition at 10 µM (LOX IMVI; [2]): 192% | GI50 ([1]; Homo sapiens, 60 cell, read-out: Full panel GI50 mean): 7.67 µM | Full panel Mean GI % ([1]; mean over NCI-60 panel, single dose 10 µM): 87.75% | GI50 (BT-549; BT-549): 2.57 µM | inhibition at 10 µM (BT-549; BT-549, read-out: percent growth inhibition): 135% | GI50 (NCI-H322M): 14.8 µM | inhibition at 10 µM (NCI-H322M; [2]): 14.2% | GI50 (COLO 205; COLO 205): 16.5 µM | inhibition at 10 µM (COLO 205; COLO 205, read-out: percent growth inhibition): 84.7% | GI50 (T-47D): 10 µM | inhibition at 10 µM (T-47D; [2]): 105% | GI50 (HCC-2998; HCC 2998): 2.04 µM | inhibition at 10 µM (HCC-2998; HCC 2998, read-out: percent growth inhibition): 75.8% | GI50 (K-562; K562): 2.71 µM | inhibition at 10 µM (K-562; K562, read-out: percent growth inhibition): 89% | GI50 (PC-3; PC-3): 8 µM | inhibition at 10 µM (PC-3; PC-3, read-out: percent growth inhibition): 89% | GI50 (OVCAR-4; OVCAR-4): 9.31 µM | inhibition at 10 µM (OVCAR-4; OVCAR-4, read-out: percent growth inhibition): 80.1% | GI50 (SF-268; SF-268): 5.86 µM | inhibition at 10 µM (SF-268; SF-268, read-out: percent growth inhibition): 40.4% | GI50 (MCF7; MCF7): 1.89 µM | inhibition at 10 µM (MCF7; MCF7, read-out: percent growth inhibition): 186% | GI50 (EKVX): 10.4 µM | inhibition at 10 µM (EKVX; [2]): 62.3% | GI50 (OVCAR-5; OVCAR-5): 13.9 µM | inhibition at 10 µM (OVCAR-5; OVCAR-5, read-out: percent growth inhibition): 68.4% | GI50 (HOP-92; HOP-92): 11 µM | inhibition at 10 µM (HOP-92; HOP-92, read-out: percent growth inhibition): 36.8% | GI50 (HT29; HT-29): 4.38 µM | inhibition at 10 µM (HT29; HT-29, read-out: percent growth inhibition): 178% | GI50 (SK-OV-3; SK-OV-3): 16.6 µM | inhibition at 10 µM (SK-OV-3; SK-OV-3, read-out: percent growth inhibition): 41.8% | GI50 (HCT-15; HCT-15): 2.01 µM | inhibition at 10 µM (HCT-15; HCT-15, read-out: percent growth inhibition): 134% | GI50 (NCI-H226; NCI-H226): 14.7 µM | inhibition at 10 µM (NCI-H226; NCI-H226, read-out: percent growth inhibition): 19.7% | GI50 (IGROV1; IGROV-1): 11 µM | inhibition at 10 µM (IGROV1; IGROV-1, read-out: percent growth inhibition): 84.3% | GI50 (NCI/ADR-RES): 2.96 µM | GI50 (M14; M14): 3.82 µM | inhibition at 10 µM (M14; M14, read-out: percent growth inhibition): 146% | GI50 (786-0; 786-0): 3.68 µM | inhibition at 10 µM (786-0; 786-0, read-out: percent growth inhibition): 133% | GI50 (HCT-116; HCT-116, HCT-116, five-dose screening): 1.94 µM | inhibition at 10 µM (HCT-116; HCT-116, read-out: percent growth inhibition): 183% | GI50 (NCI-H522; NCI-H522): 13.6 µM | inhibition at 10 µM (NCI-H522; NCI-H522, read-out: percent growth inhibition): 138% | GI50 (OVCAR-3; OVCAR-3): 2.74 µM | inhibition at 10 µM (OVCAR-3; OVCAR-3, read-out: percent growth inhibition): 107% | GI50 (TK-10; TK-10): 8.14 µM | inhibition at 10 µM (TK-10; TK-10, read-out: percent growth inhibition): 23.9% | GI50 (SK-MEL-28; SK-MEL-28): 5.22 µM | inhibition at 10 µM (SK-MEL-28; SK-MEL-28, read-out: percent growth inhibition): 98.4% | GI50 (CCRF-CEM): 2.55 µM | inhibition at 10 µM (CCRF-CEM; [2]): 87.1% | GI50 (MALME-3M): 12.5 µM | inhibition at 10 µM (MALME-3M; [2]): 101% | GI50 (SK-MEL-5; SK-MEL-5): 5.86 µM | inhibition at 10 µM (SK-MEL-5; SK-MEL-5, read-out: percent growth inhibition): 103% | GI50 (NCI-H460; NCI-H460): 5.22 µM | inhibition at 10 µM (NCI-H460; NCI-H460, read-out: percent growth inhibition): 69% | GI50 (HOP-62; HOP-62): 12.2 µM | inhibition at 10 µM (HOP-62; HOP-62, read-out: percent growth inhibition): 30% | GI50 (NCI-H23; NCI-H23): 1.99 µM | inhibition at 10 µM (NCI-H23; NCI-H23, read-out: percent growth inhibition): 73.6% | GI50 (A498; A498): 13.6 µM | inhibition at 10 µM (A498; A498, read-out: percent growth inhibition): 20% | GI50 (U251; U-251): 3.62 µM | inhibition at 10 µM (U251; U-251, read-out: percent growth inhibition): 124% | GI50 (SNB-75; SNB-75): 12.9 µM | inhibition at 10 µM (SNB-75; SNB-75, read-out: percent growth inhibition): 34.2% | GI50 (ACHN): 3.95 µM | inhibition at 10 µM (ACHN; [2]): 132% | GI50 (UACC-62; UACC-62): 10.5 µM | inhibition at 10 µM (UACC-62; UACC-62, read-out: percent growth inhibition): 61.1% | GI50 (HS 578 T): 14.3 µM | inhibition at 10 µM (HS 578 T; [2]): 98.3% | GI50 (SK-MEL-2; SK-MEL-2): 15.1 µM | inhibition at 10 µM (SK-MEL-2; SK-MEL-2, read-out: percent growth inhibition): 23.5% | GI50 (KM12; KM12): 1.99 µM | inhibition at 10 µM (KM12; KM12, read-out: percent growth inhibition): 165%
